This is an account of results in patent US20130150377A1, “Tetrahydropyridinyl and Dihydropyrrolyl Compounds and the Use Thereof” (SHIONOGI & CO., LTD., priority 2008, published 2013).

As usually defined, the IC50 is the midpoint of a concentration-inhibition curve.

Counter-ions that a name gives are not always drawn. A value given as a limit tells only on which side of the number the result lay.

Experiment [1] concerns the target T1, L-type calcium channel (LTCC) subunits (α1c, α2δ, and β1) (Rattus norvegicus, UniProt P22002).
T1 construct: expressed in transfected cells; pcDNA6.2DEST α1c, pcDNA3.2DEST β1, pcDNA3.1-Zeo α2δ)
Description: FLIPR calcium mobilization assay for L-type calcium channel (HEK293 cells expressing recombinant LTCC subunits). To be noted: calcium mobilization assay for L-type calcium channel blocking activity. The format is cell-based. The protocol:
Recombinant human embryonal kidney cells (HEK293, ATCC) stably transfected with either N-type calcium channel (NTCC) subunits (α1b, α28, and β3) or L-type calcium channel (LTCC) subunits (α1c, α2δ, and […]) were routinely cultured in growth medium consisting of Dulbecco's Modified Eagles Medium containing 10% FBS, 100 U/mL penicillin, 100 μg/mL streptomycin, 4 mM L-glutamine, 500 μg/mL geneticin (G418), 20 μg/mL Blasticidin S (InVivogen, San Diego, Calif.) and 500 μg/mL zeocin (InVivogen).
FLIPR Calcium Mobilization Assay for L-type Calcium Channel.
One day prior to performing this assay, HEK293 cells stably expressing recombinant rat L-type calcium channel (LTCC) subunits (α1c, α2δ, and β1) were trypsinized, then seeded on poly-D-lysine-coated 96-well clear-bottom black plates (Becton Dickinson, Franklin Lakes, N.J.) at 75,000 cells/well. […] The FLIPR measured basal Fluo-4 fluorescence for 15 seconds, then added 0.05 mL of each compound tested diluted in LTCC assay buffer at final concentrations ranging from about 846 pM to about 17 μM. Fluo-4 fluorescence was then measured for 5 minutes. 0.1 mL KCl agonist dissolved in LTCC assay buffer was, then added to the cells to produce a final concentration of 90 mM KCl, and fluorescence was measured for another 45 seconds. […]
For orientation: A change in cytosolic calcium serves as a functional read-out for many receptors and channels.

Experiment [2] deals with T2, N-type calcium channel (NTCC) (Homo sapiens, UniProt Q00975).
T2 construct: endogenous in cells; host or cells: differentiated IMR32 cells (ATCC)
T2 sequence (Q00975 whole entry): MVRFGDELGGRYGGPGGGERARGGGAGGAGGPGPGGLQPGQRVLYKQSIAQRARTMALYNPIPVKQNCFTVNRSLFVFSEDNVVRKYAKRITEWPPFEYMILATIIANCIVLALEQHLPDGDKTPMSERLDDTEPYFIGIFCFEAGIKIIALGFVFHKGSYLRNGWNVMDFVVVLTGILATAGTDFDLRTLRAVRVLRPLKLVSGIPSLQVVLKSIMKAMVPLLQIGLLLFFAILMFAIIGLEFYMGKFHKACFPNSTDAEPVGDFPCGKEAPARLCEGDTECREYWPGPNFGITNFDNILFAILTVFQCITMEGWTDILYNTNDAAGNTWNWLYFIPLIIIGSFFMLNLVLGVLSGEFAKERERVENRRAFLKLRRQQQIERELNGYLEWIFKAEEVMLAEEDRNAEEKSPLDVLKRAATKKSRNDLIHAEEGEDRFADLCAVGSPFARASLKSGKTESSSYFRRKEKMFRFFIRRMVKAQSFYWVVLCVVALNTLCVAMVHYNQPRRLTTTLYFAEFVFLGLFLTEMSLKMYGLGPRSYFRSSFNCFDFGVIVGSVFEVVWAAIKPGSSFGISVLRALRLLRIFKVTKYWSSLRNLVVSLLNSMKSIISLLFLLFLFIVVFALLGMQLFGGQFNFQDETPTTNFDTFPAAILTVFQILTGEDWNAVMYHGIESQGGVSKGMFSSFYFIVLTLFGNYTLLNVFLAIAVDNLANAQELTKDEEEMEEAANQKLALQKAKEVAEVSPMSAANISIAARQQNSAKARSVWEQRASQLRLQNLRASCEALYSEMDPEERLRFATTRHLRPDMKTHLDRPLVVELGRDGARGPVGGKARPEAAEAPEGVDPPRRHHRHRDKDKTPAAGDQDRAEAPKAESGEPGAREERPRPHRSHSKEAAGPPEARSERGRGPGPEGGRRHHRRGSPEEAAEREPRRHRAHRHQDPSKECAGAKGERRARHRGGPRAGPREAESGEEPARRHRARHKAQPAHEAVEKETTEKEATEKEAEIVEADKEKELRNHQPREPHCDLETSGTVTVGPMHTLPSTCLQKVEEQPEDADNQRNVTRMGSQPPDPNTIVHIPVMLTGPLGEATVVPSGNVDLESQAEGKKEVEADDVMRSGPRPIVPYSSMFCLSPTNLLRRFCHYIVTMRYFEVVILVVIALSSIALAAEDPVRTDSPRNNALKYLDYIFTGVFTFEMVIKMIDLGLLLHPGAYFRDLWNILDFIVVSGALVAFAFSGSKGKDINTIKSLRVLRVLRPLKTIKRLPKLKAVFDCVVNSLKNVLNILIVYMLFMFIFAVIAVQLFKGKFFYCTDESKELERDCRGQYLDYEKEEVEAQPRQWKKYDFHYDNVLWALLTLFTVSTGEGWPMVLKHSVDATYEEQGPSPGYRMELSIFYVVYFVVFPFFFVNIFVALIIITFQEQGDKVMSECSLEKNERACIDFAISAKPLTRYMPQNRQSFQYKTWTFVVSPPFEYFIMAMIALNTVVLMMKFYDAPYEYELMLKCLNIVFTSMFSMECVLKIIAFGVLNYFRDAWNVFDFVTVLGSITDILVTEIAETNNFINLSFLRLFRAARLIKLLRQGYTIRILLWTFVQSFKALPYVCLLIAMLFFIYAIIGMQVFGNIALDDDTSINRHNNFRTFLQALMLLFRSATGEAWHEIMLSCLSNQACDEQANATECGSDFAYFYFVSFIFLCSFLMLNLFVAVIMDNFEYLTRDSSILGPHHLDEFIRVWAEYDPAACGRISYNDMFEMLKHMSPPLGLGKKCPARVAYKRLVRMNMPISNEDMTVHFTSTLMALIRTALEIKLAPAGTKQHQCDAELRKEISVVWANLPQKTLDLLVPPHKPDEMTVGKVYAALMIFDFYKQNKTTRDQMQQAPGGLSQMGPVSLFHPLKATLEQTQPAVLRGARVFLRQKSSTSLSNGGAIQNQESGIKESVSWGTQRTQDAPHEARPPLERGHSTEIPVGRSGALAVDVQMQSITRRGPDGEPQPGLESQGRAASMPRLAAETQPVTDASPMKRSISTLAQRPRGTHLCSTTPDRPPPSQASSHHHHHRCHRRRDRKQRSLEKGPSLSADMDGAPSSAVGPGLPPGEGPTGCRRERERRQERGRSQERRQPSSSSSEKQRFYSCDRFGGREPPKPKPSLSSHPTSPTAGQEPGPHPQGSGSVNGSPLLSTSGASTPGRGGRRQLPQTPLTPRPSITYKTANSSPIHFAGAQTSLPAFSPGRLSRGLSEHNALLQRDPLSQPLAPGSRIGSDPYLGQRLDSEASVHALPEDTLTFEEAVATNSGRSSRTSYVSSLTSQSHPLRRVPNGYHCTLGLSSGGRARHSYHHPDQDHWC
T2 sequence (P54289 25-956 partner limits assumed): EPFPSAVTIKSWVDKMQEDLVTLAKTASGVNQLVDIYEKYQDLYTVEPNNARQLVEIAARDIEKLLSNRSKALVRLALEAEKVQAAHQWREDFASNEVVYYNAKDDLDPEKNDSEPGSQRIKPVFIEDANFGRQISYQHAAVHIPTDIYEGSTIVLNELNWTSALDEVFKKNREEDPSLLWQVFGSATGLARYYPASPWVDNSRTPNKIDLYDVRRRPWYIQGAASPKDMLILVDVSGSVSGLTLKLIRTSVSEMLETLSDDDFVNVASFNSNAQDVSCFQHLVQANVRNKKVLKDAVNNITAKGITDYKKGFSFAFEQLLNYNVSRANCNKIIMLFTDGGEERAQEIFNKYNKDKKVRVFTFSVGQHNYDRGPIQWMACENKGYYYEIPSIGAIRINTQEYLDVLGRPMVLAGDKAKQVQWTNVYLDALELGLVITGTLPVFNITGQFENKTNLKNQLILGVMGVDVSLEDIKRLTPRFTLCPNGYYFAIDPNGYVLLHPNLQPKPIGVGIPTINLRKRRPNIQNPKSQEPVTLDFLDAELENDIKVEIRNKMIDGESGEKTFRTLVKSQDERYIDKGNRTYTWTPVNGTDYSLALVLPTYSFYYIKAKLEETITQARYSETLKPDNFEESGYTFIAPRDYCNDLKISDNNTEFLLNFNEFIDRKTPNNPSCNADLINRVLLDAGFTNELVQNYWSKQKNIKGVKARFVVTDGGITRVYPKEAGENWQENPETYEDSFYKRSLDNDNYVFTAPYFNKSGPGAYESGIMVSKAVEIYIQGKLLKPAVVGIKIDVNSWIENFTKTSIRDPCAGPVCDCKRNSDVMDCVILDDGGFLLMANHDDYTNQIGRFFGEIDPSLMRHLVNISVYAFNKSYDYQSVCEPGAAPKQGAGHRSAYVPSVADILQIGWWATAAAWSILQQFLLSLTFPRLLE
T2 sequence (P54289 957-1103 partner limits assumed): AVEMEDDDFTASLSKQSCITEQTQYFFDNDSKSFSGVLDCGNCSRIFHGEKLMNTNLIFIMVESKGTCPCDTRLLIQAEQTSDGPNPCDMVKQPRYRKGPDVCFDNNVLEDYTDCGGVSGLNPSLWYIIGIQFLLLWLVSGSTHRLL
T2 sequence (P54284 whole entry partner): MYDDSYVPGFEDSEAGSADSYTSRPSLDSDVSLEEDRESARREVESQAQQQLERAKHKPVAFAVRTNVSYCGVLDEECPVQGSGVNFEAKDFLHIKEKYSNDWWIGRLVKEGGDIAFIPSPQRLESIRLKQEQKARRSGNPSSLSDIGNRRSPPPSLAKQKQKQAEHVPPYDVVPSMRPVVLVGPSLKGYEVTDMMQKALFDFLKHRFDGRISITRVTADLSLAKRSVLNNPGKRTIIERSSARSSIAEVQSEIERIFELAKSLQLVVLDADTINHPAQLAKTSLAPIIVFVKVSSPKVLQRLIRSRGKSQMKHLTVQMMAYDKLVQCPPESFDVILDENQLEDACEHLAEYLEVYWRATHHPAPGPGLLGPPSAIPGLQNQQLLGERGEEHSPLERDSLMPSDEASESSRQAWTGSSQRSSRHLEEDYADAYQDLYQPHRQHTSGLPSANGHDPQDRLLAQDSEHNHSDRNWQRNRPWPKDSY
Description: FLIPR calcium mobilization assay for N-type calcium channel (differentiated IMR32 cells). Type of experiment: cell-based. Conditions: N-type calcium channel blockers, calcium mobilization in vitro assay. As for the experimental part:
Cell maintenance and differentiation. Unless noted otherwise, cell culture reagents were purchased from Mediatech of Herndon, Md. IMR32 cells (American Type Culture Collection, ATCC, Manassas, Va.) were routinely cultured in growth medium consisting of minimum essential medium containing 10% fetal bovine serum (FBS, Hyclone, Logan, Utah), 100 U/mL penicillin, 100 μg/mL streptomycin, 2 mM L-glutamine, 1 mM sodium pyruvate, and 1×MEM non-essential amino acids. 80-90% confluent flasks of cells were differentiated using the following differentiation medium: Growth medium plus 1 mM dibutyryl cyclic AMP (Sigma, St. Louis, Mo.), and 2.5 μM bromodeoxyuridine (Sigma). Cells were differentiated for 8 days by replacing differentiation medium every 2-3 days.
FLIPR Calcium Mobilization Assay for N-type Calcium Channel.
One day prior to performing this assay, differentiated IMR32 cells were treated with 1× CellStripper, and seeded on poly-D-lysine-coated 96-well clear-bottom black plates (Becton Dickinson, Franklin Lakes, N.J.) at 200,000 cells/well. On the day of the assay, the cell plates were washed with IMR32 buffer (127 mM NaCl, 1 mM KCl, 2 mM MgCl2, 700 μM NaH2PO4, 5 mM CaCl2, 5 mM NaHCO3, 8 mM HEPES, 10 mM glucose, pH 7.4), then pre-stimulated with KCl and loaded as follows: […] of IMR32 buffer, 0.05 mL of each compound tested diluted in IMR32 buffer containing 20 μM nitrendipine (Sigma), and 0.1 mL KCl dissolved in IMR32 buffer, plus Fluo-4 were added (3 μM final concentration, Molecular Probes, Eugene, Oreg.). Final test compound concentrations ranged from about 846 pM to about 17 μM, final nitrendipine concentration was 5 μM, and final KCl concentration was 90 mM. After 1 hour, the cells were washed twice with 0.05 mL of each compound tested in nitrendipine-containing IMR32 buffer (no KCl or Fluo-4), and then replaced with 0.1 mL of each compound tested in nitrendipine-containing IMR32 buffer. Plates were then transferred to a Fluorimetric Imaging Plate Reader (FLIPR^96, Molecular Devices, Inc., Sunnyvale, Calif.) for assay. The FLIPR measured basal Fluo-4 fluorescence for 315 seconds (i.e., 5 minutes and 15 seconds), then added 0.1 mL KCl agonist dissolved in IMR32 buffer and measured fluorescence for another 45 seconds. Final test compound concentrations on the cells after FLIPR read ranged from about 846 pM to about 17 μM, final nitrendipine concentration was 5 μM, and final KCl concentration was 90 mM. Data were collected over the entire time course and analyzed using Excel, Graph Pad Prism (version 3.02, Graph Pad, San Diego, Calif.), or an in-house non-linear regression analysis software.

Regarding `O=C(NC1CC1)c1cccc(C2=CCN(Cc3ccc(OC(F)(F)F)cc3)CC2)n1` [Compound 9, 1′-(4-Trifluoromethoxybenzyl)-1′,2′,3′,6′-tetrahydro-[2,4′]bipyridinyl-6-carboxylic acid cyclopropylamide], the figures for the half-maximal inhibitory concentration (IC50) in experiment [1] and in experiment [2] were > 20000 nM and 930 nM, respectively.
For `O=C(NC1CC1)c1cccc(C2=CC(=O)N(S(=O)(=O)c3cccc(C(F)(F)F)c3)CC2)n1` [Compound 45, 6′-Oxo-1′-(3-trifluoromethylbenzenesulfonyl)-1′,2′,3′,6′-tetrahydro-[2,4′]bipyridinyl-6-carboxylic acid cyclopropylamide] the same measures were > 20000 nM and 20 nM.
On to `O=C(NC1CC1)c1cccc(C2=CCN(C(c3ccc(OC(F)(F)F)cc3)C(F)(F)F)CC2)n1` (stereo not drawn) [Compound 64, 1′-[2,2,2-Trifluoro-1-(4-trifluoromethoxyphenyl)ethyl]-1′,2′,3′,6′-tetrahydro-[2,4′]bipyridinyl-6-carboxylic acid cyclopropylamide], for which the concentration for half-maximal inhibition (IC50) in experiment [2] worked out at 320 nM.
The same measure, in the same setting: to `O=C(NC1CC1)c1cccc(C2=CCN(C(CO)c3ccc(OC(F)(F)F)cc3)CC2)n1` (stereo not drawn) [Compound 67, 1′-[2-Hydroxy-1-(4-trifluoromethoxyphenyl)ethyl]-1′,2′,3′,6-tetrahydro-[2,4′]bipyridinyl-6-carboxylic acid cyclopropylamide] belongs 1340 nM; to `O=C(NC1CC1)c1cccc(C2=CCN(Cc3cc(C(F)(F)F)no3)CC2)n1` [Compound 76, N-Cyclopropyl-6-{1-[(3-trifluoromethylisoxazol-5-yl)methyl]-1,2,3,6-tetrahydropyridin-4-yl}picolinamide hydrochloride], 2760 nM; to `O=C(Nc1cccc(C2=CCN(S(=O)(=O)c3cccc(C(F)(F)F)c3)CC2)n1)C1CC1` [Compound 82, 1′-(3-Trifluoromethylbenzenesulfonyl)-1′,2′,3′,6′-tetrahydro[2,4′]bipyridinyl-6-cyclopropanoylamine], 300 nM.
For the compound `O=C(NC1CC1)c1cccc(C2=CCN(S(=O)(=O)Nc3cccc(C(F)(F)F)c3)CC2)n1` [Compound 86, 1′-[(3-Trifluoromethylbenzene)aminosulfonyl]-1′,2′,3′,6′-tetrahydro-[2,4′]bipyridinyl-6-carboxylic acid cyclopropylamide], the IC50 in experiment [2] turned out to be 1050 nM.
